According to patent publication US20260306496A1, “CDK2 INHIBITOR PYRAZOLOPYRIMIDINE COMPOUNDS” (ALEKSIA THERAPEUTICS, INC., priority 2023, published 2026):
pIC50: −log10 of the molar value. Where a name gives a salt, the structure may show the parent alone.

The compounds below were run against CDK2/CCNE1 (Homo sapiens, UniProt P24941) (assay: CDK2 homogeneous time-resolved fluorescence (HTRF) assay). Conditions: 3 nM CDK2/CCNE1, 1 mM ATP, 50 nM ULight-eIF4E-binding protein 1 (Thr37/46) peptide, 60 min at 23° C.; read-out: CDK2/CCNE IC50 <25 nM.
Type: biochemical
Method: A CDK homogeneous time-resolved fluorescence (HTRF) assay was used to assess the potency of the compounds described herein.
To an untreated 384-well microtiter plate (ProxiPlate) was added 100 nL 100× test compound in DMSO and 5 μL 2×CDK enzyme in assay buffer (50 mM HEPES, 1 mM EGTA, 10 mM MgCl2, 0.01% Tween 20, 2 mM DTT). The plate was centrifuged at 800 RPM for 1 min then incubated for 20 min at 23° C. 2.5 μL per well of 4×ATP and 2.5 μL 4×ULight™-eIF4E-binding protein 1 (Thr37/46) Peptide) substrate were added to all wells. After addition, the plates were centrifuged at 800 RPM for 1 min. The plates were incubated at 23° C. for 60 min. 5 μL per well 3×EDTA solution were added to each well to stop the reaction. 2.5 μL 7×LANCE Ultra Europium-anti-phospho-eTF4E-binding protein 1 (Thr37/46 antibody) were added to each well and the plate was centrifuged for 1 min at 800 RPM. The plate was incubated for 60 min at 23° C. Fluorescence was read at 340 nm excitation and 665 nm emission on an EnVision 2105 fluorescence reader. The final concentrations of reagents in the activity assay were 3 nM CDK2/CCNE1, 1 mM ATP, 50 nM ULight™-eIF4E-binding protein 1 (Thr37/46) Peptide substrate, 1% DMSO, 10 mM EDTA, and 2 nM LANCE Ultra Europium-anti-phospho-eTF4E-binding protein 1 (Thr37/46).
Dose-response titrations were conducted by using an 11-point, three-fold serial dilution scheme typically starting at 1 μM. Signals were reported as fluorescence units at 665 nm or the ratio of fluorescence units at 665 nm/fluorescence units at 615 nm. Signals are referred to below as “Lance signals”.
Using this assay, the IC50 values of example compounds were determined.
CS(=O)(=O)c1ccc(Nc2ncc3cnn(C4CCC(C#N)CC4)c3n2)cc1 (single isomer, unassigned) [Compound 32, 4-(6-((4-(methylsulfonyl)phenyl)amino)-1H-pyrazolo[3,4-d]pyrimidin-1-yl)cyclohexane-1-carbonitrile] showed a pIC50 of over 7.60.
Work on C=CS(=O)(=O)N1CCC(Nc2ncc3cnn(CC4CCCCC4)c3n2)CC1 [Compound 1, 1-(cyclohexylmethyl)-N-(1-(vinylsulfonyl)piperidin-4-yl)-1H-pyrazolo[3,4-d]pyrimidin-6-amine] yielded a pIC50 of over 7.60.
With CS(=O)(=O)N1CCC(Nc2ncc3cnn(CC4CCCCC4)c3n2)CC1 [Compound 2, 1-(cyclohexylmethyl)-N-(1-(methylsulfonyl)piperidin-4-yl)-1H-pyrazolo[3,4-d]pyrimidin-6-amine] the pIC50 was over 7.60.

Same assay, conditions: 3 nM CDK2/CCNE1, 1 mM ATP, 50 nM ULight-eIF4E-binding protein 1 (Thr37/46) peptide, 60 min at 23° C.; read-out: CDK2/CCNE IC50 >150 nM
CC(c1cccnn1)n1ncc2cnc(Nc3ccc(S(C)(=O)=O)cc3)nc21 (single isomer, unassigned) [Compound 77, N-(4-(methylsulfonyl)phenyl)-1-(1-(pyridazin-3-yl)ethyl)-1H-pyrazolo[3,4-d]pyrimidin-6-amine] showed a pIC50 of under 6.82.
Compound CS(=O)(=O)c1ccc(Nc2ncc3cnn(CC4CCC(N5CCC5)CC4)c3n2)cc1 (single isomer, unassigned; stereoisomer a) [Compound 60, 1-((4-(azetidin-1-yl)cyclohexyl)methyl)-N-(4-(methylsulfonyl)phenyl)-1H-pyrazolo[3,4-d]pyrimidin-6-amine (stereoisomer A)] has a pIC50 of under 6.82.
Compound CS(=O)(=O)c1ccc(Nc2ncc3cnn(CC4CCC(N5CC(O)C5)CC4)c3n2)cc1 (single isomer, unassigned; stereoisomer a) [Compound 64, 1-(4-((6-((4-(methylsulfonyl)phenyl)amino)-1H-pyrazolo[3,4-d]pyrimidin-1-yl)methyl)cyclohexyl)azetidin-3-ol (stereoisomer A)] has a pIC50 of under 6.82.
CS(=O)(=O)c1ccc(Nc2ncc3cnn(CC4CCC(N5CC(C#N)C5)CC4)c3n2)cc1 (single isomer, unassigned; stereoisomer a) [Compound 65, 1-(4-((6-((4-(methylsulfonyl)phenyl)amino)-1H-pyrazolo[3,4-d]pyrimidin-1-yl)methyl)cyclohexyl)azetidine-3-carbonitrile (stereoisomer A)] gave a pIC50 of under 6.82.
With CS(=O)(=O)c1ccc(Nc2ncc3cnn(CC4CCC(N5CC[C@H](C#N)C5)CC4)c3n2)cc1 (single isomer, unassigned; stereoisomer a) [Compound 69] the pIC50 was under 6.82.
With CS(=O)(=O)c1ccc(Nc2ncc3cnn(CC4CCC(N5CC[C@@H](C#N)C5)CC4)c3n2)cc1 (single isomer, unassigned; stereoisomer a) [Compound 71] the pIC50 was under 6.82.
In the case of CS(=O)(=O)c1ccc(Nc2ncc3cnn(CC4CCC(N5CC[C@@H](O)C5)CC4)c3n2)cc1 (single isomer, unassigned; stereoisomer a) [Compound 73], the pIC50 was under 6.82.
CS(=O)(=O)c1ccc(Nc2ncc3cnn(CC4CCC(N5CC[C@H](O)C5)CC4)c3n2)cc1 (single isomer, unassigned; stereoisomer a) [Compound 74] gave a pIC50 of under 6.82.
With CS(=O)(=O)c1ccc(Nc2ncc3cnn(CC4CCC(N5CCCC5)CC4)c3n2)cc1 (single isomer, unassigned; stereoisomer b) [Compound 59, N-(4-(methylsulfonyl)phenyl)-1-((4-(pyrrolidin-1-yl)cyclohexyl)methyl)-1H-pyrazolo[3,4-d]pyrimidin-6-amine (stereoisomer B)] the pIC50 was under 6.82.
In the case of CS(=O)(=O)c1ccc(Nc2ncc3cnn(Cc4ccccc4)c3n2)cc1 [Compound 4, 1-benzyl-N-(4-(methylsulfonyl)phenyl)-1H-pyrazolo[3,4-d]pyrimidin-6-amine], the pIC50 was under 6.82.
CS(=O)(=O)c1ccc(Nc2ncc3cnn(Cc4cccnc4)c3n2)cc1 [Compound 5, N-(4-(methylsulfonyl)phenyl)-1-(pyridine-3-ylmethyl)-1H-pyrazolo[3,4-d]pyrimidin-6-amine] showed a pIC50 of under 6.82.
Work on CS(=O)(=O)c1ccc(Nc2ncc3cnn(CC4CCNCC4)c3n2)cc1 [Compound 7, N-(4-(methylsulfonyl)phenyl)-1-(piperidin-4-ylmethyl)-1H-pyrazolo[3,4-d]pyrimidin-6-amine hydrochloride] yielded a pIC50 of under 6.82.
With C=CS(=O)(=O)c1ccc(Nc2ncc3cn[nH]c3n2)cc1 [Compound 9, N-(4-(vinylsulfonyl)phenyl)-1H-pyrazolo[3,4-d]pyrimidin-6-amine] the pIC50 was under 6.82.
For C=CS(=O)(=O)c1ccc(Nc2ncc3cnn(C)c3n2)cc1 [Compound 10, 1-methyl-N-(4-(vinylsulfonyl)phenyl)-1H-pyrazolo[3,4-d]pyrimidin-6-amine], the pIC50 was under 6.82.

Same assay, conditions: column 25-150 nM; 3 nM CDK2/CCNE1, 1 mM ATP, 50 nM ULight-eIF4E-binding protein 1 (Thr37/46) peptide, 60 min at 23° C.; read-out: CDK2/CCNE IC50 25-150 nM
Work on CS(=O)(=O)c1ccc(Nc2ncc3cnn(CC4CCC(C#N)CC4)c3n2)cc1 (single isomer, unassigned) [Compound 28, 4-((6-((4-(methylsulfonyl)phenyl)amino)-1H-pyrazolo[3,4-d]pyrimidin-1-yl)methyl)cyclohexane-1-carbonitrile] yielded a pIC50 of 6.82 to 7.60.
CS(=O)(=O)c1ccc(Nc2ncc3cnn([C@H]4CC[C@H](O)CC4)c3n2)cc1 (single isomer, unassigned) [Compound 54] was tested, and the pIC50 was 6.82 to 7.60.
Compound CS(=O)(=O)c1ccc(Nc2ncc3cnn(-c4ccc(C#N)cc4)c3n2)cc1 (single isomer, unassigned) [Compound 68, 4-(6-((4-(methylsulfonyl)phenyl)amino)-1H-pyrazolo[3,4-d]pyrimidin-1-yl)benzonitrile] has a pIC50 of 6.82 to 7.60.
In the case of CS(=O)(=O)c1ccc(Nc2ncc3cn(-c4ccc(C#N)cc4)nc3n2)cc1 (single isomer, unassigned) [Compound 83, 4-(6-((4-(methylsulfonyl)phenyl)amino)-2H-pyrazolo[3,4-d]pyrimidin-2-yl)benzonitrile], the pIC50 was 6.82 to 7.60.
Work on CS(=O)(=O)c1ccc(Nc2ncc3cnn(CC4CCC(N5CCCC5)CC4)c3n2)cc1 (single isomer, unassigned; stereoisomer a) [Compound 58, N-(4-(methylsulfonyl)phenyl)-1-((4-(pyrrolidin-1-yl)cyclohexyl)methyl)-1H-pyrazolo[3,4-d]pyrimidin-6-amine (stereoisomer A)] yielded a pIC50 of 6.82 to 7.60.
With CS(=O)(=O)c1ccc(Nc2ncc3cnn(C4CCOCC4)c3n2)cc1 [Compound 3, N-(4-(methylsulfonyl)phenyl)-1-(tetrahydro-2H-pyran-4-yl)-1H-pyrazolo[3,4-d]pyrimidin-6-amine] the pIC50 was 6.82 to 7.60.
With CS(=O)(=O)c1ccc(Nc2ncc3cnn(C[C@H]4CC[C@@H](N)CC4)c3n2)cc1 [Compound 6, 1-(((1S,4S)-4-aminocyclohexyl)methyl)-N-(4-(methylsulfonyl)phenyl)-1H-pyrazolo[3,4-d]pyrimidin-6-amine] the pIC50 was 6.82 to 7.60.
With C=CS(=O)(=O)c1ccc(Nc2ncc3cnn(CC4CCCCC4)c3n2)cc1 [Compound 8, 1-(cyclohexylmethyl)-N-(4-(vinylsulfonyl)phenyl)-1H-pyrazolo[3,4-d]pyrimidin-6-amine] the pIC50 was 6.82 to 7.60.
Compound CS(=O)(=O)c1ccc(Nc2ncc3cnn(C[C@H]4CC[C@H](CO)CC4)c3n2)cc1 [Compound 11, ((1r,4r)-4-((6-((4-(methylsulfonyl)phenyl)amino)-1H-pyrazolo[3,4-d]pyrimidin-1-yl)methyl)cyclohexyl)methanol] has a pIC50 of 6.82 to 7.60.
